Test results published in ChEMBL document CHEMBL1135808, “A new type of mixed anhydride and its applications to the synthesis of 7-substituted 8-chloro-5,5-dioxoimidazo[1,2-b][1,4,2]benzodithiazines with in vitro antitumor activity” (2002).

What was measured:
Format in all cases: functional
Settings in all cases: Homo sapiens, read-out: Log LC50 (the source's name) (converted)
MDA-MB-435 = assay: (§1) Log of molar concentration leading to 50% cell death against breast cancer MDA-MB-435 cell line was reported
[1] = as §1
A549 = assay: Log of molar concentration leading to 50% cell death against non-small-cell lung cancer A 549/ATCC cell line was reported

For `O=C(Nc1nccs1)c1cc2c(cc1Cl)Sc1nccn1S2(=O)=O`, the CC50 (MDA-MB-435) was 57.5 µM.

With `Cc1ccc2cccc(NC(=O)c3cc4c(cc3Cl)Sc3nccn3S4(=O)=O)c2n1` the CC50 [1] was 55 µM and the CC50 (A549) was 63.1 µM.
